Laboratory results from patent US20240208992A1, “MACROCYCLES AS CFTR MODULATORS” (Idorsia Pharmaceuticals Ltd, priority 2021, published 2024).

Biological target: human F508del-CFTR (Homo sapiens, UniProt P13569, DEL508-508)
Assay: F508del-CFTR cell surface expression (corrector activity), DiscoveRx ß-galactosidase complementation chemiluminescence assay in recombinant U2OS cell line;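 also: U2OS cells co-expressing ProLink-tagged F508del-CFTR and a membrane-anchored enzyme acceptor, where more surface CFTR restores β-galactosidase activity measured by chemiluminescence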
Details: 16h compound incubation; for EC50: EC50, F508del-CFTR cell surface expression; for Emax: U2OS, in relation to the Emax of the corrector lumacaftor (=100%)
[1] = U2OS cell line, arithmetic mean values

Sequence of human F508del-CFTR (P13569 with tags, fused parts or gaps DEL508-508): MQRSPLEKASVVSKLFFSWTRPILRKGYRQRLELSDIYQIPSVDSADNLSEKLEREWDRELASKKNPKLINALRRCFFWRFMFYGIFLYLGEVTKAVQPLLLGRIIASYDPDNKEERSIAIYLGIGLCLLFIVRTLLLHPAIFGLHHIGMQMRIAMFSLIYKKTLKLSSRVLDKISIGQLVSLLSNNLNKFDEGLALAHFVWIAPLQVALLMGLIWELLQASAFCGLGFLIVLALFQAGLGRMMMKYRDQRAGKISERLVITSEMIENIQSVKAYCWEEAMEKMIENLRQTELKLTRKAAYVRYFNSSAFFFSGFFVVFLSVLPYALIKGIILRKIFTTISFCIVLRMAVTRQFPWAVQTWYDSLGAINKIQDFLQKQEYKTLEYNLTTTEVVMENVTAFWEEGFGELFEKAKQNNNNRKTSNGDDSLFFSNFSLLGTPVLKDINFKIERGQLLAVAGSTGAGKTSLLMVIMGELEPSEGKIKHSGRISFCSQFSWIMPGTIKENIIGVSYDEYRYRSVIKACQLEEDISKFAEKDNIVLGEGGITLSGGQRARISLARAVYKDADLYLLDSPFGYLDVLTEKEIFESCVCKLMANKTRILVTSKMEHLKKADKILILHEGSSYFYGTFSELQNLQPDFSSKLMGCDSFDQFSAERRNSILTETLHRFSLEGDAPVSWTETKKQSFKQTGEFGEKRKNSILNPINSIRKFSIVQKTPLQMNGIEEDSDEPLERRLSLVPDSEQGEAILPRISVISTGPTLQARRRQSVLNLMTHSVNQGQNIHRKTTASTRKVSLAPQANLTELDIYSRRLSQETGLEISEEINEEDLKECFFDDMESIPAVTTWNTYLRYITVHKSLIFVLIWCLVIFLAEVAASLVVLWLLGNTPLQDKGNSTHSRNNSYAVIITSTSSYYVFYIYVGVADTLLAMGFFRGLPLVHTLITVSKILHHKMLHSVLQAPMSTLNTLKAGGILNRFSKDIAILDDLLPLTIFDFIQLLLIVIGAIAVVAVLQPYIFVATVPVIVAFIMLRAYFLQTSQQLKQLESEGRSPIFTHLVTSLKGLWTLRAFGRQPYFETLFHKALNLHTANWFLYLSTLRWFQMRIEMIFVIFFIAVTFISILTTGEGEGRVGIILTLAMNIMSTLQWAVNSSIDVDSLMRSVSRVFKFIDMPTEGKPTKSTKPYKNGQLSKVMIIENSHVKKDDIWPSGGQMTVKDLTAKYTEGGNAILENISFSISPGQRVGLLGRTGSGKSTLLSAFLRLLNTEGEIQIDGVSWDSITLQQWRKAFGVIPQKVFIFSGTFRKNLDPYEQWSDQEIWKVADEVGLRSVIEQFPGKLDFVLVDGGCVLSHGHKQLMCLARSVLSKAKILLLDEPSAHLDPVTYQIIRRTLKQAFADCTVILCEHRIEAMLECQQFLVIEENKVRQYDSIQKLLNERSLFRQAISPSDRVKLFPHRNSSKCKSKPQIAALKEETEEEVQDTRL

| EC50 (U2OS cells, geomean of several measurements) | Emax (U2OS cells, arithmetic mean) | Structure (SMILES) | EC50 (U2OS cell line, geomean values) | Emax [1] |
| --- | --- | --- | --- | --- |
| 0.703 µM | 440% | COc1cc(CCNC(=O)[C@@H]2CC(=O)N(C)[C@@H](CC(C)C)C(=O)N(C)[C@@H](CC(F)(F)F)C(=O)N[C@H](Cc3ccccc3)COc3ccc4nc(C)oc4c3C(=O)N2)on1 (mixture of isomers) [Example 974, (8R,11RS,14S,18S)-8-benzyl-14-isobutyl-N-(2-(3-methoxyisoxazol-5-yl)ethyl)-2,12,15-trimethyl-10,13,16,20-tetraoxo-11-(2,2,2-trifluoroethyl)-7,8,9,10,11,12,13,14,15,16,17,18,19,20-tetradecahydrooxazolo[4′,5′:5,6]benzo[1,2-p][1]oxa[4,7,10,14]tetraazacycloheptadecine-18-carboxamide] |  |  |
|  |  | CC(C)C[C@H]1C(=O)N(CCC(C)(C)C)CC(=O)N[C@H](Cc2ccccc2)COc2cc3c(cc2C(=O)N[C@H](C(=O)NCCc2ccc4c(c2)OCO4)CC(=O)N1C)OCO3 (racemic) [Example 1, (7R,13S,17RS)-N-(2-(benzo[d][1,3]dioxol-5-yl)ethyl)-7-benzyl-11-(3,3-dimethylbutyl)-13-isobutyl-14-methyl-9,12,15,19-tetraoxo-6,7,8,9,10,11,12,13,14,15,16,17,18,19-tetradecahydro-[1,3]dioxolo[4′,5′:4,5]benzo[1,2-p][1]oxa[4,7,10,14]tetraazacycloheptadecine-17-carboxamide] | 0.056 µM | 105% |
|  |  | CC(C)C[C@H]1C(=O)N(CCc2ccccc2)CC(=O)N[C@H](Cc2ccccc2)COc2cc3c(cc2C(=O)N[C@H](C(=O)NCCc2ccc4c(c2)OCO4)CC(=O)N1C)OCO3 (racemic) [Example 5, (7R,13S,17RS)-N-(2-(benzo[d][1,3]dioxol-5-yl)ethyl)-7-benzyl-13-isobutyl-14-methyl-9,12,15,19-tetraoxo-11-phenethyl-6,7,8,9,10,11,12,13,14,15,16,17,18,19-tetradecahydro-[1,3]dioxolo[4′,5′:4,5]benzo[1,2-p][1]oxa[4,7,10,14]tetraazacycloheptadecine-17-carboxamide] | 0.369 µM | 109% |
|  |  | CC(C)C[C@H]1C(=O)N(CCCOCc2ccccc2)CC(=O)N[C@H](Cc2ccccc2)COc2cc3c(cc2C(=O)N[C@H](C(=O)NCCc2ccc4c(c2)OCO4)CC(=O)N1C)OCO3 (racemic) [Example 6, (7R,13S,17RS)-N-(2-(benzo[d][1,3]dioxol-5-yl)ethyl)-7-benzyl-11-(3-(benzyloxy)propyl)-13-isobutyl-14-methyl-9,12,15,19-tetraoxo-6,7,8,9,10,11,12,13,14,15,16,17,18,19-tetradecahydro-[1,3]dioxolo[4′,5′:4,5]benzo[1,2-p][1]oxa[4,7,10,14]tetraazacycloheptadecine-17-carboxamide] | 0.42 µM | 112% |
|  |  | COc1cc2c(cc1OC)C(=O)N[C@H](C(=O)NCCc1ccc3c(c1)OCO3)CC(=O)N(C)[C@@H](CC1CC1)C(=O)N(CCC1CCCCC1)CC(=O)N[C@H](Cc1ccccc1)CO2 (racemic) [Example 9, (3R,9S,13RS)-N-(2-(benzo[d][1,3]dioxol-5-yl)ethyl)-3-benzyl-7-(2-cyclohexylethyl)-9-(cyclopropylmethyl)-17,18-dimethoxy-10-methyl-5,8,11,15-tetraoxo-2,3,4,5,6,7,8,9,10,11,12,13,14,15-tetradecahydrobenzo[p][1]oxa[4,7,10,14]tetraazacycloheptadecine-13-carboxamide] | 0.36 µM | 130% |
|  |  | COc1cc2c(cc1OC)C(=O)N[C@H](C(=O)NCCc1ccc3c(c1)OCO3)CC(=O)N(C)[C@@H](CC1CCCC1)C(=O)N(CCC1CCCCC1)CC(=O)N[C@H](Cc1ccccc1)CO2 (racemic) [Example 10, (3R,9S,13RS)-N-(2-(benzo[d][1,3]dioxol-5-yl)ethyl)-3-benzyl-7-(2-cyclohexylethyl)-9-(cyclopentylmethyl)-17,18-dimethoxy-10-methyl-5,8,11,15-tetraoxo-2,3,4,5,6,7,8,9,10,11,12,13,14,15-tetradecahydrobenzo[p][1]oxa[4,7,10,14]tetraazacycloheptadecine-13-carboxamide] | 0.082 µM | 123% |
|  |  | COc1cccc2c1C(=O)N[C@H](C(=O)NCCc1ccc3c(c1)CCCO3)CC(=O)N(C)[C@@H](CC(C)C)C(=O)N(CCC1CCCCC1)CC(=O)N[C@H](Cc1ccccc1)CO2 (racemic) [Example 11, (3R,9S,13RS)-3-benzyl-N-(2-(chroman-6-yl)ethyl)-7-(2-cyclohexylethyl)-9-isobutyl-16-methoxy-10-methyl-5,8,11,15-tetraoxo-2,3,4,5,6,7,8,9,10,11,12,13,14,15-tetradecahydrobenzo[p][1]oxa[4,7,10,14]tetraazacycloheptadecine-13-carboxamide] |  | 132% |
|  |  | COc1cccc2c1C(=O)N[C@H](C(=O)NCCc1ccc3c(c1)OCCCO3)CC(=O)N(C)[C@@H](CC(C)C)C(=O)N(CCC1CCCCC1)CC(=O)N[C@H](Cc1ccccc1)CO2 (racemic) [Example 12, (3R,9S,13RS)-3-benzyl-7-(2-cyclohexylethyl)-N-(2-(3,4-dihydro-2H-benzo[b][1,4]dioxepin-7-yl)ethyl)-9-isobutyl-16-methoxy-10-methyl-5,8,11,15-tetraoxo-2,3,4,5,6,7,8,9,10,11,12,13,14,15-tetradecahydrobenzo[p][1]oxa[4,7,10,14]tetraazacycloheptadecine-13-carboxamide] |  | 184% |
|  |  | COc1cccc2c1C(=O)N[C@H](C(=O)NCCc1ccc3c(c1)COC3)CC(=O)N(C)[C@@H](CC(C)C)C(=O)N(CCC1CCCCC1)CC(=O)N[C@H](Cc1ccccc1)CO2 (racemic) [Example 13, (3R,9S,13RS)-3-benzyl-7-(2-cyclohexylethyl)-N-(2-(1,3-dihydroisobenzofuran-5-yl)ethyl)-9-isobutyl-16-methoxy-10-methyl-5,8,11,15-tetraoxo-2,3,4,5,6,7,8,9,10,11,12,13,14,15-tetradecahydrobenzo[p][1]oxa[4,7,10,14]tetraazacycloheptadecine-13-carboxamide] | 0.268 µM | 153% |
|  |  | COc1cccc2c1C(=O)N[C@H](C(=O)NCCc1ccc3ccoc3c1)CC(=O)N(C)[C@@H](CC(C)C)C(=O)N(CCC1CCCCC1)CC(=O)N[C@H](Cc1ccccc1)CO2 (racemic) [Example 14, (3R,9S,13RS)-N-(2-(benzofuran-6-yl)ethyl)-3-benzyl-7-(2-cyclohexylethyl)-9-isobutyl-16-methoxy-10-methyl-5,8,11,15-tetraoxo-2,3,4,5,6,7,8,9,10,11,12,13,14,15-tetradecahydrobenzo[p][1]oxa[4,7,10,14]tetraazacycloheptadecine-13-carboxamide] | 0.16 µM | 185% |
|  |  | COc1cccc2c1C(=O)N[C@H](C(=O)NCCc1ccc3c(c1)OCC3)CC(=O)N(C)[C@@H](CC(C)C)C(=O)N(CCC1CCCCC1)CC(=O)N[C@H](Cc1ccccc1)CO2 (racemic) [Example 15, (3R,9S,13RS)-3-benzyl-7-(2-cyclohexylethyl)-N-(2-(2,3-dihydrobenzofuran-6-yl)ethyl)-9-isobutyl-16-methoxy-10-methyl-5,8,11,15-tetraoxo-2,3,4,5,6,7,8,9,10,11,12,13,14,15-tetradecahydrobenzo[p][1]oxa[4,7,10,14]tetraazacycloheptadecine-13-carboxamide] |  | 240% |
|  |  | COc1cccc2c1C(=O)N[C@H](C(=O)NCCc1nc3ccccc3o1)CC(=O)N(C)[C@@H](CC(C)C)C(=O)N(CCC1CCCCC1)CC(=O)N[C@H](Cc1ccccc1)CO2 (racemic) [Example 16, (3R,9S,13RS)-N-(2-(benzo[d]oxazol-2-yl)ethyl)-3-benzyl-7-(2-cyclohexylethyl)-9-isobutyl-16-methoxy-10-methyl-5,8,11,15-tetraoxo-2,3,4,5,6,7,8,9,10,11,12,13,14,15-tetradecahydrobenzo[p][1]oxa[4,7,10,14]tetraazacycloheptadecine-13-carboxamide] |  | 137% |
|  |  | Cc1csc(CCNC(=O)[C@@H]2CC(=O)N(C)[C@@H](CC(C)C)C(=O)N3CCCC[C@@H]3C(=O)N[C@H](Cc3ccccc3)COc3ccc4ncn(C)c4c3C(=O)N2)n1 (racemic) [Example 23, (8RS,12S,18aR,21R)-21-benzyl-12-isobutyl-5,11-dimethyl-N-(2-(4-methylthiazol-2-yl)ethyl)-6,10,13,19-tetraoxo-6,7,8,9,10,11,12,13,16,17,18,18a,19,20,21,22-hexadecahydro-5H,15H-imidazo[4′,5′:5,6]benzo[1,2-p]pyrido[2,1-f][1]oxa[4,7,10,14]tetraazacycloheptadecine-8-carboxamide] |  | 115% |
|  |  | Cc1cnc(CCNC(=O)[C@@H]2CC(=O)N(C)[C@@H](CC(C)C)C(=O)N3CCCC[C@@H]3C(=O)N[C@H](Cc3ccccc3)COc3ccc4ncn(C)c4c3C(=O)N2)s1 (racemic) [Example 24, (8RS,12S,18aR,21R)-21-benzyl-12-isobutyl-5,11-dimethyl-N-(2-(5-methylthiazol-2-yl)ethyl)-6,10,13,19-tetraoxo-6,7,8,9,10,11,12,13,16,17,18,18a,19,20,21,22-hexadecahydro-5H,15H-imidazo[4′,5′:5,6]benzo[1,2-p]pyrido[2,1-f][1]oxa[4,7,10,14]tetraazacycloheptadecine-8-carboxamide] | 0.823 µM | 131% |
|  |  | COc1ccc(CCNC(=O)[C@@H]2CC(=O)N(C)[C@@H](CC(C)C)C(=O)N3CCCC[C@@H]3C(=O)N[C@H](Cc3ccccc3)COc3ccc4ncn(C)c4c3C(=O)N2)cc1 (racemic) [Example 25, (8RS,12S,18aR,21R)-21-benzyl-12-isobutyl-N-(4-methoxyphenethyl)-5,11-dimethyl-6,10,13,19-tetraoxo-6,7,8,9,10,11,12,13,16,17,18,18a,19,20,21,22-hexadecahydro-5H,15H-imidazo[4′,5′:5,6]benzo[1,2-p]pyrido[2,1-f][1]oxa[4,7,10,14]tetraazacycloheptadecine-8-carboxamide] | 0.547 µM | 142% |
